This passage reports relative viability results from the supplement of paper PMC10307832.

Test in all cases: relative viability (nuclei count vs DMSO), 5 days (fraction); higher = more cells survive
Compound in assay [1]: CCc1cnn2c(NCc3ccc[n+]([O-])c3)cc(N3CCCC[C@H]3CCO)nc12 [Dinaciclib] + CC1(C)CCC(c2ccc(Cl)cc2)=C(CN2CCN(c3ccc(C(=O)NS(=O)(=O)c4ccc(N[C@H](CCN5CCOCC5)CSc5ccccc5)c(S(=O)(=O)C(F)(F)F)c4)cc3)CC2)C1 [Navitoclax] (partner 0.5 µM)
Put shortly: (§1)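 Relative viability is defined as nuclei in treated wells over nuclei in vehicle wells. Duplicate plates were run and medians reported. Lung cancer cell lines in 1536-well plates were dosed by pin tool one day after seeding, with one drug or with a fixed anchor-drug dose plus five library-drug doses (not always all listed) in √10 steps, and nuclei were counted after 5 days.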

Compound in assay [2]: CCc1cnn2c(NCc3ccc[n+]([O-])c3)cc(N3CCCC[C@H]3CCO)nc12 [Dinaciclib] + COc1cc2c(Oc3ccc(NC(=O)C4(C(=O)Nc5ccc(F)cc5)CC4)cc3F)ccnc2cc1OCCCN1CCOCC1 [Foretinib] (partner 0.25 µM)
In a few lines:
as §1

Compound in assay [3]: CCc1cnn2c(NCc3ccc[n+]([O-])c3)cc(N3CCCC[C@H]3CCO)nc12 [Dinaciclib] + Cc1nc(Nc2ncc(C(=O)Nc3c(C)cccc3Cl)s2)cc(N2CCN(CCO)CC2)n1 [Dasatinib] (partner 0.075 µM)
In a few lines: as §1

Compound in assay [4]: CCc1cnn2c(NCc3ccc[n+]([O-])c3)cc(N3CCCC[C@H]3CCO)nc12 [Dinaciclib] + Nc1ncn([C@H]2C[C@H](O)[C@@H](CO)O2)c(=O)n1 [Decitabine] (partner 2 µM)
Put shortly:
as §1

Compound in assay [5]: CCc1cnn2c(NCc3ccc[n+]([O-])c3)cc(N3CCCC[C@H]3CCO)nc12 [Dinaciclib] + O=C(c1cc(Cc2n[nH]c(=O)c3ccccc23)ccc1F)N1CCN(C(=O)C2CC2)CC1 [Olaparib] (partner 8 µM)
Put shortly:
as §1

Take NCI-H1437: the relative viability in assay [1] (first compound 0.009487 µM) worked out at 0.972; in assay [1] (first compound 0.03 µM), 0.108; in assay [1] (first compound 0.09487 µM), 0.106; in assay [1] (first compound 0.3 µM), 0.0962; in assay [2] (first compound 0.009487 µM), 1.06; in assay [2] (first compound 0.03 µM), 0.564. In addition, the relative viability amounted to 0.184 in assay [2] (first compound 0.09487 µM); 0.15 in assay [2] (first compound 0.3 µM); 0.411 in assay [3] (first compound 0.009487 µM); 0.102 in assay [3] (first compound 0.03 µM); 0.103 in assay [3] (first compound 0.09487 µM); 0.0897 in assay [3] (first compound 0.3 µM). Besides, the relative viability stood at 0.405 in assay [4] (first compound 0.009487 µM); 0.194 in assay [4] (first compound 0.03 µM); 0.182 in assay [4] (first compound 0.09487 µM); 0.197 in assay [4] (first compound 0.3 µM); 0.418 in assay [5] (first compound 0.009487 µM); 0.159 in assay [5] (first compound 0.03 µM). Besides, the relative viability turned out to be 0.138 in assay [5] (first compound 0.09487 µM) and 0.158 in assay [5] (first compound 0.3 µM).
As to RERF-LC-KJ, the relative viability in assay [1] (first compound 0.009487 µM) was 0.906; in assay [1] (first compound 0.03 µM), 0.172; in assay [1] (first compound 0.09487 µM) it was 0.122; in assay [1] (first compound 0.3 µM), 0.169; in assay [2] (first compound 0.009487 µM), 0.902; in assay [2] (first compound 0.03 µM), 0.635. Also, the relative viability in assay [2] (first compound 0.09487 µM) is 0.15; in assay [2] (first compound 0.3 µM) it was 0.101; in assay [3] (first compound 0.009487 µM), 0.36; in assay [3] (first compound 0.03 µM) it was 0.192; in assay [3] (first compound 0.09487 µM), 0.15; in assay [3] (first compound 0.3 µM) it was 0.159. Also, the relative viability in assay [4] (first compound 0.009487 µM) worked out at 0.476; in assay [4] (first compound 0.03 µM), 0.157; in assay [4] (first compound 0.09487 µM), 0.157; in assay [4] (first compound 0.3 µM) it was 0.147; in assay [5] (first compound 0.009487 µM), 0.466; in assay [5] (first compound 0.03 µM), 0.166. In addition, the relative viability in assay [5] (first compound 0.09487 µM) is 0.155; in assay [5] (first compound 0.3 µM), 0.154.
EPLC-272H: the relative viability in assay [1] (first compound 0.009487 µM) came to 1.05; in assay [1] (first compound 0.03 µM) it was 0.576; in assay [1] (first compound 0.09487 µM) it was 0.411; in assay [1] (first compound 0.3 µM), 0.0616; in assay [2] (first compound 0.009487 µM), 0.591; in assay [2] (first compound 0.03 µM) it was 0.0464. In addition, the relative viability in assay [2] (first compound 0.09487 µM) was determined as 0.0366; in assay [2] (first compound 0.3 µM), 0.0314; in assay [3] (first compound 0.009487 µM), 0.381; in assay [3] (first compound 0.03 µM), 0.089; in assay [3] (first compound 0.09487 µM), 0.0366; in assay [3] (first compound 0.3 µM), 0.0325. Moreover, the relative viability in assay [4] (first compound 0.009487 µM) worked out at 0.36; in assay [4] (first compound 0.03 µM), 0.088; in assay [4] (first compound 0.09487 µM) it was 0.0389; in assay [4] (first compound 0.3 µM), 0.0501; in assay [5] (first compound 0.009487 µM) it was 0.274; in assay [5] (first compound 0.03 µM), 0.0455. In addition, the values for the relative viability in assay [5] (first compound 0.09487 µM) and in assay [5] (first compound 0.3 µM) were 0.0344 and 0.036, respectively.
Take NCI-H596: the relative viability in assay [1] (first compound 0.009487 µM) was found to be 0.872; in assay [1] (first compound 0.03 µM), 0.276; in assay [1] (first compound 0.09487 µM), 0.0498; in assay [1] (first compound 0.3 µM), 0.09; in assay [2] (first compound 0.009487 µM), 0.861; in assay [2] (first compound 0.03 µM) it was 0.547. The relative viability was determined as 0.176 in assay [2] (first compound 0.09487 µM); 0.178 in assay [2] (first compound 0.3 µM); 0.675 in assay [3] (first compound 0.009487 µM); 0.643 in assay [3] (first compound 0.03 µM); 0.232 in assay [3] (first compound 0.09487 µM); 0.178 in assay [3] (first compound 0.3 µM). The relative viability amounted to 1.48 in assay [4] (first compound 0.009487 µM); 0.839 in assay [4] (first compound 0.03 µM); 0.271 in assay [4] (first compound 0.09487 µM); 0.258 in assay [4] (first compound 0.3 µM); 0.699 in assay [5] (first compound 0.009487 µM); 0.522 in assay [5] (first compound 0.03 µM). Besides, the relative viability in assay [5] (first compound 0.09487 µM) came out at 0.222; in assay [5] (first compound 0.3 µM), 0.202.
NCI-H322M: the relative viability stood at 1.27 in assay [1] (first compound 0.009487 µM); 1.2 in assay [1] (first compound 0.03 µM); 0.587 in assay [1] (first compound 0.09487 µM); 0.205 in assay [1] (first compound 0.3 µM); 0.801 in assay [2] (first compound 0.009487 µM); 0.287 in assay [2] (first compound 0.03 µM). In addition, the relative viability in assay [2] (first compound 0.09487 µM) was found to be 0.302; in assay [2] (first compound 0.3 µM), 0.281; in assay [3] (first compound 0.009487 µM), 0.248; in assay [3] (first compound 0.03 µM), 0.248; in assay [3] (first compound 0.09487 µM), 0.247; in assay [3] (first compound 0.3 µM), 0.28. The relative viability in assay [4] (first compound 0.009487 µM) was found to be 0.713; in assay [4] (first compound 0.03 µM), 0.441; in assay [4] (first compound 0.09487 µM) it was 0.416; in assay [4] (first compound 0.3 µM), 0.348; in assay [5] (first compound 0.009487 µM), 0.652; in assay [5] (first compound 0.03 µM), 0.304. Also, the relative viability came out at 0.328 in assay [5] (first compound 0.09487 µM) and 0.321 in assay [5] (first compound 0.3 µM).
